Data on one molecule can be found in patent US5723580A, “Ketomethylene group-containing aldehyde cysteine and serine protease inhibitors” (Cephalon, Inc., priority 1996, dated 1998).

What all share (assay type): biochemical
Assay [1] has as its system cathepsin L. Description: Inhibition of cathepsin L activity (Cbz-Phe-Arg-AMC substrate). The following applies: @1 uM; 0.006 mM Cbz-Phe-Arg-AMC, pH 6.0. On the procedure:
(§1) To evaluate inhibitory activity, stock solutions (40 times concentrated) of each compound to be tested were prepared in 100% anhydrous DMSO and 5 μL of each inhibitor preparation were aliquoted into each of three wells of a 96-well plate. Calpain I, prepared by a modification of the method of W. J. Lee et al. (Biochem. Internatl. 22: 163-171 (1990)), was diluted into assay buffer (i.e., 50 mM Tris, 50 mM NaCl, 1 mM EDTA, 1 mM EGTA, and 5 mM-mercaptoethanol, pH 7.5 including 0.2 mM Succ-Leu-Tyr-MNA) and 175 μL aliquoted into the same wells containing the independent inhibitor stocks as well as to positive control wells containing 5 μL DMSO, but no compound. […] Substrate hydrolysis was monitored every 5 minutes for a total of 30 minutes using a Fluoroskan II fluorescence plate reader. […]
(§2) Inhibition of calpain I activity was calculated as the percent decrease in the rate of substrate (S) hydrolysis in the presence of inhibitor (I) relative to the rate in its absence (o). […] The results were plotted as % inhibition versus log inhibitor concentration and the IC50 was calculated from linear regression of the data.
(§3) Additionally, the order of reagents added to the plate was altered because both enzymes are constitutively active. […] Substrate hydrolysis was monitored using a Fluoroskan II (ex=390 nm; em=460 nm).

In assay [2] the target is T1, Calpain I (Homo sapiens, UniProt P07384).
T1 construct: made in house
T1 sequence (P07384 1-714): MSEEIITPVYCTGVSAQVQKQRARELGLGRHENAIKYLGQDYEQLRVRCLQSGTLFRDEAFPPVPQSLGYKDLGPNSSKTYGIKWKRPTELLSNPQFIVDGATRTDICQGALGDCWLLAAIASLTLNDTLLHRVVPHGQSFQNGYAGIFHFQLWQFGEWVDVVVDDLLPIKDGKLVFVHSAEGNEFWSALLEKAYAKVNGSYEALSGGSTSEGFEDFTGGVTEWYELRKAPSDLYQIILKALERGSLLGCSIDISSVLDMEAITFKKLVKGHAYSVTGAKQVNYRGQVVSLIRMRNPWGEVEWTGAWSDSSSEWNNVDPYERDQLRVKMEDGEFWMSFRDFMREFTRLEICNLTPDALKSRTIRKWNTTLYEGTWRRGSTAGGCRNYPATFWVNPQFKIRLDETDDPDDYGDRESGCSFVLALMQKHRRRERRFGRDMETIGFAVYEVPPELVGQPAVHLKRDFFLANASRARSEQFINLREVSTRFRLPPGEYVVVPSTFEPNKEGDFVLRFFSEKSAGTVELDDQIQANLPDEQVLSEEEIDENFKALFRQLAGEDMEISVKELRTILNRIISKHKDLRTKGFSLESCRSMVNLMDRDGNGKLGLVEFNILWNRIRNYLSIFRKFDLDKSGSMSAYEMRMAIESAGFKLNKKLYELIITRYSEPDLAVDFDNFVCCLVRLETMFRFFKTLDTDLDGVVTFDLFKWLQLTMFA
T1 sequence (P04632 1-268 partner): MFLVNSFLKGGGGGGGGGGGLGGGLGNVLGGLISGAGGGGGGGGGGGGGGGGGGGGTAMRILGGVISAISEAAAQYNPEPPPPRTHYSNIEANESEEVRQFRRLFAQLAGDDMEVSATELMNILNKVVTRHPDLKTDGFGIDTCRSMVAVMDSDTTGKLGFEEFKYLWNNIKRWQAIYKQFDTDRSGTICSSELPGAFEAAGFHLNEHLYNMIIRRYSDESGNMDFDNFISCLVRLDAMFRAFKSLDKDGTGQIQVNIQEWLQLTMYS
Briefly: Inhibition of calpain I activity (fluorescence, Succ-Leu-Tyr-MNA substrate hydrolysis). Conditions: 0.2 mM Succ-Leu-Tyr-MNA, pH 7.5. On the procedure:
To evaluate inhibitory activity, stock solutions (40 times concentrated) of each compound to be tested were prepared in 100% anhydrous DMSO and 5 μL of each inhibitor preparation were aliquoted into each of three wells of a 96-well plate. Calpain I, prepared by a modification of the method of W. J. Lee et al. (Biochem. Internatl. 22: 163-171 (1990)), was diluted into assay buffer (i.e., 50 mM Tris, 50 mM NaCl, 1 mM EDTA, 1 mM EGTA, and 5 mM-mercaptoethanol, pH 7.5 including 0.2 mM Succ-Leu-Tyr-MNA) and 175 μL aliquoted into the same wells containing the independent inhibitor stocks as well as to positive control wells containing 5 μL DMSO, but no compound. To start the reaction, 20 μL of 50 mM CaCl2 in assay buffer was added to all wells of the plate, excepting three, which were used as background signal baseline controls. Substrate hydrolysis was monitored every 5 minutes for a total of 30 minutes using a Fluoroskan II fluorescence plate reader. Substrate hydrolysis in the absence of inhibitor was linear for up to 15 minutes.
as §2

For assay [3], the system named is α-chymotrypsin. Description: Inhibition of α-chymotrypsin (Succ-Ala-Ala-Pro-Phe-AMC substrate). The following applies: @10 uM; 0.03 mM Succ-Ala-Ala-Pro-Phe-AMC, pH 7.5. On the procedure: as §1
Additionally, because α-chymotrypsin is not a calcium sensitive enzyme and is constitutively active, following addition of inhibitor stocks to the 96 well plates, 100 μl of a 2-fold concentrated stock of enzyme in dilution buffer was first added and the reaction started by addition of 100 μl of a 2-fold concentrated stock of substrate in assay buffer. Substrate hydrolysis was monitored every 5 minutes up to 30 minutes using a Fluoroskan II ([…]). […]

Assay [4] has as its system cathepsin B. Briefly: Inhibition of cathepsin B activity (Cbz-Phe-Arg-AMC substrate). The following applies: @1 uM; 0.1 mM Cbz-Phe-Arg-AMC, pH 6.0. On the procedure: as §1, §2, §3
The test system of assay [5] is thrombin. Briefly: Inhibition of thrombin (Bz-Phe-Val-Arg-AMC substrate). The following applies: @10 uM; 25 μM Bz-Phe-Val-Arg-AMC, pH 7.5.

By IC50 is commonly meant the point on the concentration scale where inhibition reaches its midpoint. Regarding `CC(C)CC(CC(=O)[C@H](CC(C)C)NC(=O)OCc1ccccc1)C(=O)N[C@H](C=O)CC(C)C` (stereo partly drawn) [compound 7, Z-Leu-Psi[COCH2 ]Leu-Leu-H], the “Cat L % I” value in assay [1] is on record as 100%. This molecule also showed an IC50 in assay [2] of 0.012 µM. Besides, in assay [3], the “Chymotrypsin % I” value amounted to 53%. Also, the “Cat B % I” value in assay [4] worked out at 97%. Moreover, the “Thrombin % I” value in assay [5] is recorded as 0%.
